Columns and labels:
Assay type in all cases: cell-based, human
IL-6 level, SW480 cells = test: IL-6 level ELISA, SW480; conditions: SW480, 72 h; for reduction (inhibition) of IL-6 level: IC50 concentration, vs control; for IL-6 Concentration: compound at IC50 concentration, ELISA
Experimental: (§1) Because of the low secretion of IL-6 by leukemic cells compared to solid tumors, and in addition to the lack of IL-6 receptors in K-562 cells, studies of the effect of derivatives 1–3, 8, and 9 on the inhibition of IL-6 release were carried out on primary and secondary solid tumor cells (SW480, SW620, and PC3). A remarkable inhibition of the IL-6 level was denoted for both colon cancer cell lines. Compound 2, identified as the strongest inhibitor, reduced the interleukin level by 54% (in SW480 cells) and 63% (SW620 cells). A significant effect was also observed in these cells for its structural isomer 3 (39% and 23% of inhibition, respectively). Additionally, compound 3 considerably affected the IL-6 level produced by PC3 cells, and reduced it by 33%. Similarly, the treatment with derivative 1 was effective for both colon cancer cells. In its presence, IL-6 release decreased by 28–36%, as compared to controls. For monosubstituted derivatives 8 and 9, the observed IL-6-reducing influence was weaker. They both inhibited IL-6 secretion in SW480 and SW620 cell lines by 25–32%. In contrast to compound 9, thiourea 8 additionally diminished the cytokine level in PC3 cells by 26%.
(§2) The IL-6 concentration in all studied cancer cells and normal HaCaT cell lines was measured by an ELISA kit (Diaclon SAS Besancon CEDEX, Besançon, France). […] IL-6 in cell culture supernatant was measured using the enzyme-linked immunosorbent assay in accordance with the manufacturer’s protocol.

SW480 cells [1] = test: Trypan blue assay, SW480; conditions: SW480, 72 h; for Cell Number × 10^5 / Viability (%): compound at IC50 concentration
Experimental: (§3) In order to estimate the tumor and normal cell population density and their viability after treatment with compounds 1–3, 8, and 9, the trypan blue dye exclusion assay was performed. The live cell number of all cancerous cells incubated for 72 h with the studied thioureas was considerably lower in comparison with the controls (Table 2; Figure S1A). The highest reduction in cell amount was denoted for both colon SW480 and SW620 cells treated with the dichlorophenyl derivative 2, and it accounted for 93%. […] Similarly, a noticeable decline in both colon cancer cell populations was observed after treatment with the ortho-substituted compound 8. The number of live cells equaled 12% and 18%, respectively, as compared to controls. This thiourea also led to a reduction of PC3 cells of 38%, and leukemia K-562 cell lines of 27%. The number of SW620 and PC3 cells decreased by 72% and 63% in the presence of para-substituted compound 9. However, the reducing influence of this thiourea on the number of other cancerous cells was at the level of 21–32%. […] A significant effect on the other studied pathological cells was also noticed and accounted for 32–46%. Furthermore, the derivative 3 reduced the amount of live cancer cells by 32–59%, of which its decreasing impact on colon cancer cells was the greatest.
(§4) The live cell count was assessed by the trypan blue exclusion dye assay using an automated cell counter (CountessTM Invitrogen, Waltham, MA, USA). Untreated cells were used as the control.

IL-6 level, SW620 cells = test: IL-6 level ELISA, SW620; conditions: SW620, 72 h; for reduction (inhibition) of IL-6 level: IC50 concentration, vs control; for IL-6 Concentration: compound at IC50 concentration, ELISA
Experimental: as §1, §2

IL-6 level, HaCaT cells = test: IL-6 level ELISA, HaCaT; conditions: 72 h, compound at IC50 concentration
Experimental: as §1, §2

SW480 cells [2] = test: MTT assay, SW480; conditions: 50% growth inhibition
Experimental: As a first step in assessing their cytotoxic properties, all thioureas of the series were assayed against four human carcinoma cell lines, such as SW480 (primary colon cancer), SW620 (metastatic colon cancer), PC3 (metastatic prostate cancer), and K-562 (chronic myelogenous leukemia), as well as against the normal cell line HaCaT (immortalized human keratinocytes). Table 1 lists the compound concentrations that produced 50% of growth inhibition (IC50, μM), generated by the MTT method, in comparison with two commonly used chemotherapeutic agents, doxorubicin and cisplatin.
The human primary (SW480), metastatic (SW620) colon cancer, metastatic prostate cancer (PC3), chronic myelogenous leukemia (K-562), and human immortal keratinocyte (HaCaT) cell lines were purchased from the American Type Culture Collection (ATCC, Rockville, MD, USA). The cells were cultured in medium according to protocols (MEM for SW480 and SW620, RPMI 1640 for PC3 and K-562, and DMEM for HaCaT cells), supplemented with 10% FBS, penicillin (100 U/mL) and streptomycin (100 μg/mL), and cultured in a 37 °C/5% CO2 humidified incubator. The cells were cultured until appropriate confluence was achieved (80–90%). Next, they were harvested by treatment with 0.25% trypsin (Gibco Life Technologies, Waltham, MA, USA) excluding the non-adherent K-562 cell line and used for studies.
Cells without the studied compounds in medium were used as a control.
The cell viability was assessed by determination of MTT salt [3-(4,5-dimethylthiazol-2-yl)-2,5-diphenyltetrazoliumbromide] conversion by mitochondrial dehydrogenase. The MTT assay was performed as previously described. Alternatively, non-adherent leukemic cells were centrifuged in a microplate centrifuge (400× g, 5 min) during the collection stages. Experiments were repeated three times. Cell viability was presented as a percent of MTT reduction in the treated cells versus the control cells. The number of viable cells cultured without the studied compounds was assumed as 100%. A decreased relative MTT level indicated decreased cell viability. Thiourea compounds with the highest cytotoxic potential assessed by MTT determination (with the lowest IC50) were chosen for subsequent assessments of cytotoxicity mechanisms.

HaCaT cells = test: Trypan blue assay, HaCaT; conditions: 72 h, compound at IC50 concentration
Experimental: as §3, §4

Trypan blue assay, HaCaT = conditions: human, HaCaT cells, compound at IC50 concentration
Experimental: as §3, §4

SW480 cells [3] = test: Annexin V-FITC/PI flow cytometry, SW480; conditions: SW480, 72 h, IC50 concentration
Experimental: To estimate the mechanism of anticancer activity of the selected compounds 1–3, 8, and 9, their effect on both early and late apoptosis was evaluated by flow cytometry analysis. […] Additionally, visible late apoptosis-inducing properties in these cell lines were denoted for the compound 9 (47% ± 3.0%), which was twice as strong towards the colon tumor cells mentioned above. The apoptotic properties of analogs 3 and 8 in K-562 cells varied from 30% ± 1.6% to 33% ± 2.3%. […] Whereas the apoptosis-generating influence of derivatives 2 and 3 on normal keratinocytes was higher (29% and 23%), their selectivity measured by MTT methods is favorable. The obtained results are in agreement with the IC50 values assigned to pathological cancer cell lines. The cells were cultured and harvested under the conditions described in Section 3.2.1. […] The effect of these compounds on the process of early and late apoptosis and necrosis was determined as described previously by dual staining with Annexin V:FITC and propidium iodide, according to the manufacturer’s protocol (Becton Dickinson). The cells that were Annexin V:FITC positive and PI negative were identified as early apoptotic, and Annexin V:FITC and PI positive as late apoptotic or necrotic.

SMILES	reduction (inhibition) of IL-6 level (IL-6 level, SW480 cells)	IL-6 Concentration (IL-6 level, SW480 cells)	Cell Number × 10^5 (SW480 cells [1])	Viability (%) (SW480 cells [1])	reduction (inhibition) of IL-6 level (IL-6 level, SW620 cells)	IL-6 Concentration (IL-6 level, SW620 cells)	IL-6 Concentration (IL-6 level, HaCaT cells)	IC50 (SW480 cells [2]; Homo sapiens, SW480, 72 h)	Cell Number × 10^5 (HaCaT cells)	viability at 72 h (Trypan blue assay, HaCaT)	cells in late apoptosis (SW480 cells [3])	reduction in live cell number (SW480 cells [1]; IC50 concentration, vs control)	IC50 (SW480 cells [2]; 72 h)	number of live cells as compared to controls (SW480 cells [1]; IC50 concentration)
FC(F)(F)c1cccc(NC(S)=Nc2ccc(Cl)cc2Cl)c1 [Compound 3, 1-(2,4-dichlorophenyl)-3-[3-(trifluoromethyl)phenyl]thiourea]	39%	4.8 ± 0.04 pg/mL	1.5 ± 0.10 × 10^5	90 ± 1.30%	23%	5.9 ± 0.03 pg/mL	8.9 ± 0.01 pg/mL	30.1 ± 3.11 µM	7.8 ± 0.14 × 10^5	96 ± 3.01%				
FC(F)(F)c1cccc(NC(=S)Nc2ccc(Cl)cc2)c1 [Compound 9, 1-(4-chlorophenyl)-3-[3-(trifluoromethyl)phenyl]thiourea]		5.5 ± 0.02 pg/mL	2.5 ± 0.12 × 10^5	72 ± 2.25%		5.2 ± 0.03 pg/mL	9.0 ± 0.01 pg/mL	38.1 ± 4.38 µM	8.6 ± 0.12 × 10^5	98 ± 1.5%	24% ± 0.4%			
FC(F)(F)c1cccc(NC(=S)Nc2ccc(Cl)c(Cl)c2)c1 [Compound 2, 1-(3,4-dichlorophenyl)-3-[3-(trifluoromethyl)phenyl]thiourea]	54%	3.6 ± 0.02 pg/mL	0.3 ± 0.35 × 10^5	45 ± 2.40%	63%	2.8 ± 0.03 pg/mL	9.1 ± 0.03 pg/mL	9 ± 1.42 µM	1.6 ± 0.31 × 10^5	84 ± 1.03%	95% ± 1.5%	93%		
Fc1ccc(NC(=S)Nc2cccc(C(F)(F)F)c2)cc1Cl [Compound 1, 1-(3-chloro-4-fluorophenyl)-3-[3-(trifluoromethyl)phenyl]thiourea]		5.7 ± 0.01 pg/mL	2.0 ± 0.30 × 10^5	69 ± 1.30%		4.9 ± 0.01 pg/mL	8.7 ± 0.03 pg/mL	12.7 to 15.6 µM	6.5 ± 0.15 × 10^5	97 ± 1.33%	60% ± 1.8%		12.7 ± 1.53 µM	
FC(F)(F)c1ccc(NC(=S)Nc2cccc(C(F)(F)F)c2)cc1 [Compound 8, 1-[3-(trifluoromethyl)phenyl]-3-[4-(trifluoromethyl)phenyl]thiourea]		5.3 ± 0.01 pg/mL	0.4 ± 0.15 × 10^5	90 ± 2.30%		5.8 ± 0.06 pg/mL	9.1 ± 0.06 pg/mL	8.9 ± 1.14 µM	4.9 ± 0.28 × 10^5	98 ± 1.02%	97% ± 1.2%			12%

— publication PMC8623398, “Investigation of the Mechanisms of Cytotoxic Activity of 1,3-Disubstituted Thiourea Derivatives” (Pharmaceuticals, 2021)
